Source: PMC6006164, “Natural cyclopeptide RA-V inhibits the NF-κB signaling pathway by targeting TAK1” (Cell Death & Disease, 2018)

What was measured:
Format in all cases: cell-based
[1] = system: IL-8 production; assay: TNF-α-induced IL-8 production, ELISA; conditions: HeLa; RA-V 12 h, 10 ng/mL TNF-α 2 h; ELISA of supernatant; dose-dependent
Description: Fig. 1 RA-V inhibits TNF-α- and LPS-induced activation of NF-κB. a Chemical structure of RA-V. b RA-V inhibited the NF-κB signaling pathway in a dose-dependent manner. HEK293T or HeLa cells were transfected with the 5 × κB-luciferase and pTK-Renilla reporters. Twenty-four hours after transfection, the cells were incubated with various concentrations of RA-V for 6 h, and then treated with 10 ng/mL TNF-α for 2 h before the luciferase activity assay and MTT assay. c RA-V reduced TNF-α-induced expression of NF-κB target genes. HEK293T or HeLa cells were treated with various concentrations of RA-V for 24 h and stimulated with 10 ng/mL TNF-α for 2 h. The expression of the NF-κB target genes, IL-8, MCP-1, and E-selectin was measured by quantitative RT-PCR and normalized to GADPH expression. d RA-V inhibited TNF-α-induced p65 phosphorylation, IκBα phosphorylation and IκBα degradation. HEK293T or HeLa cells were incubated with various concentrations of RA-V for 24 h and treated with 10 ng/mL TNF-α for 10 min. The cell lysates were prepared and subjected to western blot analysis with the indicated antibodies. e RA-V inhibited TNF-α-induced IL-8 production. […] The expression of IL-6 was measured. h RA-V inhibited LPS-induced p65 phosphorylation, IκBα phosphorylation. […] The protein expression was measured. i RA-V inhibited LPS-induced IL-6 production. […] The expression of IL-6 was measured.

[2] = system: p65 nuclear translocation; assay: Immunofluorescence assay of p65 nuclear translocation; conditions: HeLa; 200 nM RA-V 6 h, 10 ng/mL TNF-α 15 min
[3] = system: TAK1–TAB2 interaction; assay: Co-immunoprecipitation of TAK1 and TAB2; conditions: HEK293T or RAW264.7; 800 nM RA-V 6 h
Description: (§1) Fig. 4 RA-V blocks the interaction between TAK1 and TAB2. a RA-V blocked the exogenous TAK1–TAB2 interaction. HEK293T cells were transfected with Flag-TAK1 and HA-TAB2 for 24 h and then incubated with various concentrations of RA-V for 6 h. […] HEK293T cells were transfected with Flag-TAK1 and HA-TRAF6 or HA-TAB1 for 24 h and then incubated with RA-V (800 nM) for 6 h. The cell lysates were immunoprecipitated with HA antibody, and immunoblots were performed with the indicated antibodies. d RA-V blocked the endogenous TAK1–TAB2 interaction. HEK293T (left) or RAW264.7 (right) cells were incubated with 800 nM RA-V for 6 h and stimulated with 10 ng/mL TNF-α for 2 h or 1 μg/mL LPS for 3 h, respectively. The cell lysates were immunoprecipitated with TAK1 antibody or control IgG and then immunoblotted with the indicated antibodies. Each experiment was repeated at least three times
(§2) The cell lysates were prepared using radioimmunoprecipitation (RIPA) buffer containing 50 mM Tris-HCl pH 7.4, 150 mM NaCl, 1 mM ethylenediaminetetraacetic acid, 1% Triton X-100, 0.5% deoxycholate, and 0.1% sodium dodecyl sulfate, to which protease inhibitors (Roche) were added. The lysates were incubated with the indicated antibodies before adding 20 μL of Protein A/G agarose for 2 h. After four washes with the same buffer, the immunoprecipitates were boiled in 2 × SDS loading buffer.

[4] = target: T1, TAK1–TAB2 interaction (Homo sapiens, UniProt O43318); assay: Co-immunoprecipitation of TAK1 and TAB2; conditions: HEK293T, Flag-TAK1 and HA-TAB2; RA-V 6 h
T1 construct: expressed in transfected cells; host or cells: HEK293T
T1 sequence (O43318 1-579 isoform O43318-2): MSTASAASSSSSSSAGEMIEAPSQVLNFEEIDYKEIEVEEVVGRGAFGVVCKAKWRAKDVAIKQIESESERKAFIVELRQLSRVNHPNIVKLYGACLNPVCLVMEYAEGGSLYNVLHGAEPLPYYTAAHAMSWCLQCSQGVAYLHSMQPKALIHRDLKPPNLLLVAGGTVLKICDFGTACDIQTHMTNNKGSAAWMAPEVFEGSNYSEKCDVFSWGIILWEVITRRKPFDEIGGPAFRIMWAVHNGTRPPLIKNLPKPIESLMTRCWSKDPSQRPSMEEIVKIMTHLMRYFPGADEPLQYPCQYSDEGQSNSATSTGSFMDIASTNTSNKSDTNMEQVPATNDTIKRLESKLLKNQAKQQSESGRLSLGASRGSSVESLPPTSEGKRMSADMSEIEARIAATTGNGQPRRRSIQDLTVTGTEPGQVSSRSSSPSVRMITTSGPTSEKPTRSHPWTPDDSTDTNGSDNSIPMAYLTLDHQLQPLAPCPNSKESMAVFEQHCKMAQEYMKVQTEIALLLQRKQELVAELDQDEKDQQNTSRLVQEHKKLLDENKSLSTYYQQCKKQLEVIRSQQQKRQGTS
Description: as §1, §2

[5] = target: T2, TAK1–TAB1 interaction (Homo sapiens, UniProt O43318+Q15750); assay: Co-immunoprecipitation of TAK1 and TAB1; conditions: HEK293T, Flag-TAK1 and HA-TAB1; RA-V 800 nM 6 h
T2 construct: expressed in transfected cells; host or cells: HEK293T
T2 sequence (O43318 1-579 isoform O43318-2): T1 sequence (O43318 1-579 isoform O43318-2)
T2 sequence (Q15750 1-504 partner): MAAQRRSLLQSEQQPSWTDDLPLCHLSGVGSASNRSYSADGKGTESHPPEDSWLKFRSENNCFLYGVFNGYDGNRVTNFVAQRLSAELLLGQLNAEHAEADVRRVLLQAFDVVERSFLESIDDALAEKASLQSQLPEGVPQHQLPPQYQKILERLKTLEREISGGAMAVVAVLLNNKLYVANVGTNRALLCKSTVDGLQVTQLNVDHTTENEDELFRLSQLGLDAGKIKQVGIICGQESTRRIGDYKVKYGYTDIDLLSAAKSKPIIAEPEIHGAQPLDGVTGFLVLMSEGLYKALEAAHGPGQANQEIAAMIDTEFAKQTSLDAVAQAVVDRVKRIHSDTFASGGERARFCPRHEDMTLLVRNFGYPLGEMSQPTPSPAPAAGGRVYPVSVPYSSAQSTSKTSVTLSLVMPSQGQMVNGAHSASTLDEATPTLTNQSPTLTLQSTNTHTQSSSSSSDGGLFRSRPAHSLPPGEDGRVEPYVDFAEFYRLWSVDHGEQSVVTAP
Description: as §1, §2

RA-V
TNF-α-induced production of IL-8 [1]: inhibited
TNF-α-induced p65 nuclear translocation [2]: significantly blocked
endogenous TNF-α- or LPS-induced TAK1–TAB2 interaction [3]: inhibited the interaction
interaction between exogenously expressed TAK1 and TAB2 [4]: dose-dependently blocked
TAK1–TAB1 interaction [5]: does not disrupt
